Laboratory results from patent US9365540B2, “Benzimidazole derivatives as MCH receptor antagonists” (Takeda Pharmaceutical Company Limited, priority 2012, dated 2016).
Where a name gives a salt, the structure may show the parent alone.

Legend:
[1] = molecular target: T1, human MCH receptor 1 (MCHR1) (Homo sapiens, UniProt Q99705); experiment: human MCH receptor 1 (MCHR1) competitive binding assay with [125I]-MCH(4-19); conditions: test compound 0.1 μM, human MCHR1-expressing CHO cell membrane fraction, read-out: Binding inhibition rate % (0.1 μM)
T1 construct: expressed in transfected cells; host or cells: CHO cell clone 57 (membrane fraction)
Procedure: Determination of human MCH receptor 1 (MCHR1) competitive inhibitory activity of test compound using binding assay
1. Preparation of Membrane Fraction
Using human MCHR1 (=SLC-1 receptor)-expressing CHO cell clone 57 described in WO01/82925, MCHR1-expressing CHO cell membrane fractions were prepared by the following method.
In phosphate buffered saline (pH 7.4) supplemented with 5 mM EDTA (ethylenediaminetetraacetic acid) were respectively suspended human MCHR1-expressing CHO cells (1×10^8 cells) and centrifuged. Homogenate buffer (10 mL, 10 mM NaHCO3, 5 mM EDTA, pH 7.5, 0.5 mM PMSF (phenylmethylsulfonyl fluoride), 20 mg/L leupeptin, 4 mg/L E-64, 1 mg/L pepstatin A) was added to the pellets of the cells and, using Polytron Homogenizer, the mixture was homogenated. The supernatant obtained after centrifugation at 400×g for 10 min was further centrifuged at 100,000×g for 1 hr to give precipitate of the membrane fraction. The precipitate were suspended in 2 mL of assay buffer [20 mM Tris-HCl (pH 7.5), 5 mM EDTA, 0.5 mM PMSF, 20 mg/L leupeptin, 4 mg/L E-64, 1 mg/L pepstatin A]. The membrane fractions were suspended in assay buffer to a protein concentration of 2 mg/mL, and after dispensing, preserved at −80° C. and used upon thawing each time when in use.
The MCHR1 ligand binding inhibitory activity of the test compound was determined as follows.
An MCHR1-expressing CHO cell membrane fraction (173 μL) diluted with an assay buffer was dispensed to a 96 well polypropylene plate (3363, Corning). DMSO solution (2 μL), 33 μM cold MCH(1-19) diluted with DMSO solution (2 μL), or a test compound solution diluted with DMSO solution to various concentrations (2 μL) was added, and lastly, [^125I]-MCH (4-19) diluted with assay buffer (hereinafter, sometimes to be referred to as “hot MCH”, 25 μL) was added to each well. The mixture was reacted with stirring at room temperature for 1 hr, and the plate was set on FilterMate Harvester (PerkinElmer). Using a treating glass filter plate (GF/C, PerkinElmer) with polyethyleneimine, which had been previously set, the plate was suction-filtered and washed three times with washing buffer (50 mM Tris-HCl buffer pH 7.5). The glass filter plate was dried, MicroScinti0 (PerkinElmer) was added at 25 μL/well, and the resulting radioactivity was measured by TopCount liquid scintillation counter (PerkinElmer). The binding inhibition rate of the test compound was calculated by the following formula. Binding inhibition (%)=100−(radioactivity upon addition of test compound and hot MCH−radioactivity upon addition of cold MCH and hot MCH solution)/(radioactivity upon addition of DMSO solution and hot MCH−radioactivity upon addition of cold MCH and hot MCH solution)×100
The binding inhibition rates (%) of test compounds (0.1 μM) as measured using human MCHR1-expressing CHO cell are shown in Table 2.

human MCHR1 = molecular target: T2, human MCHR1 (Homo sapiens, UniProt Q99705); experiment: MCH receptor 1 antagonistic activity, Ca2+ mobilization assay; type: cell-based; conditions: CHO, test compound 0.1 μM; human MCHR1-expressing CHO cells (clone #4); ligand MCH(4-19) 2 nM; read-out: Inhibitory rate % (0.1 μM)
T2 construct: expressed in transfected cells; host or cells: CHO dhfr- cells, clone #4
Procedure: Measurement of MCH Receptor 1 Antagonistic Activity of Test Compound Using Ca^2+ Mobilization Assay Using an expression vector plasmid introduced with human MCHR1 gene for expression in animal cells, human MCHR1 gene was introduced into CHO cells (CHO dhfr^−) by Lipofectamine LTX (Invitrogen). The cells were cultured in selection MEMα medium [445 mL of MEMα medium without nucleic acid and added with 5 mL of Penicillin-Streptomycin (Invitrogen) and 50 mL of dialyzed fetal bovine serum]. Colony 24 clones grown in the selection medium, which were human MCHR1 gene-expressing CHO cell candidates, were selected. […] In the following test, this human MCHR1-expressing CHO cell (clone #4) was used. An integrated dispensing function fluorometer (CellLux, PerkinElmer) was used for Ca^2+ mobilization assay. […] The medium was removed, and the cells were washed with phosphate buffered saline (PBS). […] The plate was set on a plate reader. […] The inhibition rates (%) of test compounds (0.1 μM) as antagonist activity measured using human MCHR1-expressing CHO cells (clone #4) are shown in the following Table 3.

T1 sequence (Q99705 whole entry): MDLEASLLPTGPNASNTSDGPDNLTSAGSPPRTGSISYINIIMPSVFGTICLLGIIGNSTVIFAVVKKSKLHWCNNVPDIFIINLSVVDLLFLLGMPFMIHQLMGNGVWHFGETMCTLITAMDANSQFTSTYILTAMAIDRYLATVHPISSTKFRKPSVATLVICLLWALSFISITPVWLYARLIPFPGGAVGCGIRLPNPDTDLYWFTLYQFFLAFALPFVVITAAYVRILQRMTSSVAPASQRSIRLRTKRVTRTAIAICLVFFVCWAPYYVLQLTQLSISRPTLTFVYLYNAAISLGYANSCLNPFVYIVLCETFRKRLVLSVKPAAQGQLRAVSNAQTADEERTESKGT
T2 sequence (Q99705 whole entry): as above

inhibition at 0.1 µM [1]	inhibition at 0.1 µM (human MCHR1)	SMILES
70%	97%	Cn1c(C2CC2)nc2ccc(-n3ccc(OCc4nc(C(F)(F)F)cs4)cc3=O)cc21 [Example 256, 1-(2-Cyclopropyl-1-methyl-1H-benzimidazol-6-yl)-4-((4-(trifluoromethyl)-1,3-thiazol-2-yl)methoxy)pyridin-2(^1H)-one]
74%	69%	Cc1c(C2CC2)nc2ccc(-n3ccc(OCc4ccc(C(F)F)s4)cc3=O)cn12 [Example 178, 1-(2-Cyclopropyl-3-methylimidazo[1,2-a]pyridin-6-yl)-4-((5-(difluoromethyl)-2-thienyl)methoxy)pyridin-2(1H)-one]
52%	61%	Cn1c(C(=O)C2CC2)nc2ccc(-n3ccc(OCc4ccc(F)cc4)cc3=O)cc21 [Example 31, 1-(2-(Cyclopropylcarbonyl)-1-methyl-1H-benzimidazol-6-yl)-4-((4-fluorobenzyl)oxy)pyridin-2(1H)-one]
51%	96%	Cc1c(C2CC2)nc2ccc(-n3ccc(OCc4cccs4)cc3=O)cn12 [Example 132, 1-(2-Cyclopropyl-3-methylimidazo[1,2-a]pyridin-6-yl)-4-(2-thienylmethoxy)pyridin-2(1H)-one]
80%	98%	Cn1c(C2CC2)nc2ccc(-n3ccc(OCc4coc(Br)c4)cc3=O)cc21 [Example 262, 4-((5-Bromo-3-furyl)methoxy)-1-(2-cyclopropyl-1-methyl-1H-benzimidazol-6-yl)pyridin-2(1H)-one]
58%	80%	Cn1c(C2CC2)nc2ccc(-n3ccc(OCc4cccs4)cc3=O)cc21 [Example 124, 1-(2-Cyclopropyl-1-methyl-1H-benzimidazol-6-yl)-4-(2-thienylmethoxy)pyridin-2(1H)-one]
57%	84%	CC(=O)c1nc2ccc(-n3ccc(OCc4ccc(F)cc4)cc3=O)cc2n1C [Example 66, 1-(2-Acetyl-1-methyl-1H-benzimidazol-6-yl)-4-((4-fluorobenzyl)oxy)pyridin-2(1H)-one]
67%	70%	Cn1c(CC2CC2)nc2ccc(-n3ccc(OCc4ccc(Cl)cc4)cc3=O)cc21 [Example 91, 4-((4-Chlorobenzyl)oxy)-1-(2-(cyclopropylmethyl)-1-methyl-1H-benzimidazol-6-yl)pyridin-2(1H)-one]
66%	86%	Cc1csc(COc2ccn(-c3ccc4nc(C5CC5)n(C)c4c3)c(=O)c2)n1 [Example 268, 1-(2-Cyclopropyl-1-methyl-1H-benzimidazol-6-yl)-4-((4-methyl-1,3-thiazol-2-yl)methoxy)pyridin-2(1H)-one]
85%	98%	Cc1c(C2CC2)nc2ccc(-n3ccc(OCc4ccc(Br)cc4)cc3=O)cn12 [Example 192, 4-((4-Bromobenzyl)oxy)-1-(2-cyclopropyl-3-methylimidazo[1,2-a]pyridin-6-yl)pyridin-2(1H)-one]
58%	100%	Cc1nc2ccc(-n3ccc(OCc4cc(C(F)(F)F)cs4)cc3=O)cc2n1C [Example 286, 1-(1,2-Dimethyl-1H-benzimidazol-6-yl)-4-((4-(trifluoromethyl)thiophen-2-yl)methoxy)pyridin-2(1H)-one]
47%	98%	Cc1c(C2CC2)nc2ccc(-n3ccc(OCc4ccc(F)cn4)cc3=O)cn12 [Example 291, 1-(2-Cyclopropyl-3-methylimidazo[1,2-a]pyridin-6-yl)-4-((5-fluoropyridin-2-yl)methoxy)pyridin-2(1H)-one hydrochloride]
91%	75%	Cc1c(C2CC2)nc2ccc(-n3ccc(OCc4csc(C(F)(F)F)c4)cc3=O)cn12 [Example 183, 1-(2-Cyclopropyl-3-methylimidazo[1,2-a]pyridin-6-yl)-4-((5-(trifluoromethyl)-3-thienyl)methoxy)pyridin-2(1H)-one]
76%	99%	CCCc1nc2ccc(-n3ccc(OCc4ccc(F)cc4)cc3=O)cc2n1C [Example 64, 4-((4-Fluorobenzyl)oxy)-1-(1-methyl-2-propyl-1H-benzimidazol-6-yl)pyridin-2(1H)-one]
36%	58%	Cn1c(C2CC2)nc2ccc(-n3ccc(OCc4csc(C5CC5)n4)cc3=O)cc21 [Example 285, 1-(2-Cyclopropyl-1-methyl-1H-benzimidazol-6-yl)-4-((2-cyclopropyl-1,3-thiazol-4-yl)methoxy)pyridin-2(1H)-one]
64%	94%	Cc1c(C2CC2)nc2ccc(-n3ccc(OCc4csc(C(F)(F)F)n4)cc3=O)cn12 [Example 179, 1-(2-Cyclopropyl-3-methylimidazo[1,2-a]pyridin-6-yl)-4-((2-(trifluoromethyl)-1,3-thiazol-4-yl)methoxy)pyridin-2(1H)-one]
67%	–	Cn1c([C@@H]2C[C@@H]2C(C)(C)O)nc2ccc(-n3ccc(OCc4ccc(Cl)cn4)cc3=O)cc21 (racemic) [Example 204, 4-((5-Chloropyridin-2-yl)methoxy)-1-(2-((1RS,2SR)-2-(2-hydroxypropan-2-yl)cyclopropyl)-1-methyl-1H-benzimidazol-6-yl)pyridin-2(1H)-one]
79%	–	Cc1cc(COc2ccn(-c3ccc4nc(C5CC5)n(C)c4c3)c(=O)c2)cs1 [Example 213, 1-(2-Cyclopropyl-1-methyl-1H-benzimidazol-6-yl)-4-((5-methyl-3-thienyl)methoxy)pyridin-2(1H)-one]
65%	–	CCCc1nc2ccc(-n3ccc(OCc4ccccc4)cc3=O)cc2n1C [Example 126, 4-(Benzyloxy)-1-(1-methyl-2-propyl-1H-benzimidazol-6-yl)pyridin-2(1H)-one]
88%	–	Cn1c(C2CC2)nc2ccc(-n3ccc(OCc4csc(F)c4)cc3=O)cc21 [Example 216, 1-(2-Cyclopropyl-1-methyl-1H-benzimidazol-6-yl)-4-((5-fluoro-3-thienyl)methoxy)pyridin-2(1H)-one]
49%	–	Cc1nc2ccc(-n3ccc(OCc4ccccc4)cc3=O)cn2c1C [Example 163, 4-(Benzyloxy)-1-(2,3-dimethylimidazo[1,2-a]pyridin-6-yl)pyridin-2(1H)-one]
76%	–	CCc1nc2ccc(-n3ccc(OCc4ccc(Cl)s4)cc3=O)cc2n1C [Example 211, 4-((5-Chlorothiophen-2-yl)methoxy)-1-(2-ethyl-1-methyl-1H-benzimidazol-6-yl)pyridin-2(1H)-one]
94%	–	Cn1c(C2CC2C(C)(C)O)nc2ccc(-n3ccc(OCc4ccc(Cl)cc4)cc3=O)cc21 (stereo not drawn) [Example 153, 4-((4-Chlorobenzyl)oxy)-1-(2-((1R*,2S*)-2-(2-hydroxypropan-2-yl)cyclopropyl)-1-methyl-1H-benzimidazol-6-yl)pyridin-2(1H)-one]
